Test results taken from US20090247766A1, “Substituted Nitrogen Heterocycles and Synthesis and Uses Thereof” (University of Southern California, priority 2008, published 2009).
≈ marks a conversion by molar mass, not a printed value. Where “and” joins values, the source holds several entries; their conditions need not be identical. Equal entries are not always repeated.

What was measured:
Type in all cases: cell-based
H29 = assay: MTT cytotoxicity assay, H29; details: replicate values
Experimental: (§1) IC50 was determined using an MTT assay.

HCT116 p53 −/− = assay: MTT cytotoxicity assay, HCT116 p53 -/-; details: replicate values
Experimental: as §1

Skov-3 = assay: MTT cytotoxicity assay, Skov-3; details: replicate values
Experimental: as §1

MDA-MB 435 = assay: MTT cytotoxicity assay, MDA-MB 435
Experimental: For example, compound 1-[5-chloro-2-(4-methoxy-phenyl)-3-trifluoromethyl-indol-1-yl]-ethanone, prepared under Example 2 of the present application, has shown potential anticancer activity against several cancer cell lines.
as §1

MCF7 = assay: MTT cytotoxicity assay, MCF7; details: replicate values
Experimental: as §1

HCT116 p53 +/+ = assay: MTT cytotoxicity assay, HCT116 p53 +/+; details: replicate values
Experimental: as §1

[1] = Homo sapiens, HCT-116, MTT assay

In the case of `COc1ccc(-c2c(C(F)(F)F)c3cc(Cl)ccc3n2C(C)=O)cc1` [Example 2, 1-[5-chloro-2-(4-methoxy-phenyl)-3-trifluoromethyl-indol-1-yl]-ethanone], the IC50 (H29) is reported as 9.6 µg/mL (≈ 26.1 µM), the “IC50 H29” value (H29) is reported as 9.8 µg/mL (≈ 26.6 µM) and the IC50 (HCT116 p53 −/−; [1]) is reported as 13.2 µg/mL (≈ 35.9 µM). The “IC50 HCT116 p53 −/−” value (HCT116 p53 −/−; MTT assay) was 8.4 µg/mL and 9.4 µg/mL and 9.2 µg/mL, the IC50 (Skov-3; Homo sapiens, SK-OV-3, MTT assay) was 15.8 µg/mL (≈ 43 µM) and the “IC50 Skov-3” value (Skov-3; MTT assay) was 17.2 µg/mL (≈ 46.8 µM). For the same compound, the “cytotoxicity against the MDA MB-435 cell line” value (MDA-MB 435; 10 micromolar (μM) concentration, MTT assay) was 80.8%, the IC50 (MDA-MB 435; Homo sapiens, MDA-MB-435, MTT assay, replicate values) was 11.1 µg/mL (≈ 30.2 µM) and the “IC50 MDA-MB 435” value (MDA-MB 435; MTT assay, replicate values) was 8.5 µg/mL and 7.4 µg/mL and 9.6 µg/mL. The IC50 (MCF7; Homo sapiens, MCF7, MTT assay) was 18.8 µg/mL (≈ 51.1 µM), the “IC50 MCF7” value (MCF7; MTT assay) was 18 µg/mL (≈ 48.9 µM) and the IC50 (HCT116 p53 +/+; [1]) was 14.5 µg/mL (≈ 39.4 µM). The “IC50 HCT116 p53 +/+” value (HCT116 p53 +/+; MTT assay) was 15.4 µg/mL (≈ 41.9 µM).
